Six compounds from patent publication US20250057791A1, “PROTECTION AGAINST ARTHROPOD PARASITES WITH PURINERGIC RECEPTOR (OPR) ANTAGONISTS” (priority 2021, published 2025) can be followed below.

The test system of experiment [1] is A. gambiae labellum sensilla (purine-sensitive cell). The experiment in a line: Tip recording of action potentials from A. gambiae labellum sensilla in response to agonists. Particulars: for EC50: Anopheles gambiae, read-out: ED50 (the source's name); for EC50 / ED95 / dose at which the unsurmountable asymptote is reached: spike frequency as a function of dose; for spikes recorded at the asymptote: at 250 pM; for Mean spike frequency per 2 s (±SEM): each compound at 200 pM alone and in binary mixtures, T1 labellum sensilla. The experiment is classed as cell-based, Anopheles gambiae. As for the experimental part:
The tip recording method was used to record action potentials (spikes) from sensory cells in sensilla on A. gambiae labellum lobes.
Sensilla were exposed to test compounds and PR antagonists for ca. 2-4 s and spikes were counted in the first 2 s of recordings. Up to 4 test compounds were tested on a sensillum to evaluate potential agonists, each presented at 200 pM. To study responses as a function of dose for agonists ATP, adenosine, AMP, AMP-CPP and ATP+adenosine, up to 7 recordings were made at increasing doses of agonist from the same sensillum. Unless otherwise stated, recordings were made throughout from 4 to 16 sensilla from individual 4-6-day-old females per dose of agonist, antagonist and metal ion modulator. For example, a response curve established over 6 doses of an antagonist using 8 sensilla per dose involved recording from a sensillum of 48 separate mosquitoes. A given dose of a PR antagonist or metal ion modulator was only presented once to a sensillum. Two-second recordings were imported as ASCII files into DataView software for analysis of spike amplitude. Differences in spike amplitude generated by stimulation of one 8v sensillum/female with 1 mM sucrose (n=294 spikes from 6 females) 200 pM adenosine (n=207 spikes from 7 females) and 200 pM ATP (n=192 spikes from 7 females) were compared by measuring the spike amplitude in mV between the highest point of depolarisation and the lowest point of hyperpolarisation.
Spike counts elicited by 200 pM doses of nucleotides, nucleosides, purines, pyrimidines and water were log(x+1.25)-transformed (optimal constant numerically established using a maximum likelihood procedure) and analysed using a linear mixed effects model (function ‘lme’ in “nlme” R package) with mosquito number as random effect. To model inhomogeneous variance in residuals (near normal distribution, P=0.045, Shapiro-Wilk test, W=0.98604), the variance function ‘varldent’ in the “nlme” package that allows for different variance per treatment was used. Statistical differences were identified between treatments using post-hoc-Tukey test with contrasts adjusted by Holm's family wise error compensation (FWEC). Spike counts elicited by ATP, AMP, adenosine and their binary mixtures were analysed using a generalised linear model (LM) of log (x+10) transformed data and differences were identified using post-hoc-Tukey test with Holm's FWEC.
Log transformed spike amplitudes generated in response to ATP, adenosine and sucrose were compared using linear mixed effects models using the ‘lme’ function of the “nlme” R package, with spike amplitude as the dependent variable, treatment as the fixed factor and mosquito number within treatment as random effect. Residuals were normally distributed (Shapiro-Wilk test P>0.0563) and their variances homogeneous (Bartlett test P>0.9799); P-values were corrected using Holm's FWEC.
Dose-response models fitted to mosquito data were generated using the ‘drm’ command in the “drc” R package (version 2.5-12). Best fitting models (goodness of fit) and effects of dose of a compound were assessed using, respectively, ‘modelFit’ and ‘noEffect’ functions in the same R package. A 3-parameter logistic model (L3) was fitted to spike-counts recorded to increasing doses of adenosine, AMP, ATP and AMP-CPP. Spike numbers recorded in response to 200 pM ATP with increasing doses of PR antagonists added were analysed using a 4-parameter log-logistic model (LL.4) for A-317491 and spinorphin, using a 4-parameter Weibull model (W1.4) for PPADS, RB-2 and TMP, and using a 3-parameter log-logistic model (LL.3) for suramin. An L3 model was fitted to proportions of females feeding on increasing doses of ATP. Feeding rates on 20 μM ATP with increasing doses of a PR antagonist added were analysed using a 4-parameter log-logistic model (LL.4) with the median of the positive control (20 μM ATP) fixed as the upper asymptote. […]

Another experiment deals with A. gambiae. The experiment in a line: Membrane feeding assay, A. gambiae. The experiment is classed as in vivo, Anopheles gambiae. The method, then: Experiments with A. gambiae and A. stephensi were made in a climate chamber at 28° C. and 80% RH during the last 6 hours of scotophase. As a sugar meal can interfere with the blood meal by reducing the number of females that feed, the sucrose solution supplied in rearing cages to mosquitoes employed for feeding experiments was reduced to 5%. […] The 5% sucrose solution was presented to mosquitoes from emergence on four 1 cm diam. cotton dental rolls (Hartmann A G, Neuhausen, Switzerland) inserted in 10 ml upturned glass vials placed in holes at each corner of the rearing cage ceiling. Cotton rolls were turned daily in vials and renewed every two days. Mosquitoes were not fed blood and were deprived of sucrose 17 to 20 hours before experiments. Thirty min before a feeding experiment, between 10-25, 6-day-old females that responded to activation by human breath were removed with a mouth aspirator from the rearing cage wall and placed in polystyrol cylinders with the floor cut out (10 cm dm×15 cm high; Semadeni, Ostermundigen, Switzerland) that served as feeding cages. Each cage was covered with mosquito netting at one end and a soft polyurethane lid at the other.
Mosquitoes were fed for 30 min using a feeding system (Hemotek®, Hemotek Ltd, Blackburn, UK) consisting of 3.5 ml stainless steel reservoirs 37 mm in diameter covered with a 60-90 μm thick silicone-impregnated membrane (Kröber and Guerin, 2007 in “Feeding assays for hard ticks”, Trends in parasitology 23, 445-449; doi 10.1016/j.pt.2007.07.010). Feeding reservoirs reached a temperature of 37° C. within 10 min and were placed on the netting of feeding cages. Mosquitoes were activated using a 200 ms pulse of pure CO2 (volume 6.25 ml) from a pressurised cylinder (Carbagas, Switzerland) using a solenoid valve that caused the CO2 level in the feeding cage to rise to at least 1,500 ppm. Between 3 and 4 sets of 10 feeding cages held in a custom-built Ertacetal® POM frame were tested per day, depending of the number of female mosquitoes available from the colony.
All compounds were tested in a mosquito feeding solution (FS) consisting of 25 mM dextrose, 25 mM NaCl buffered with 8.93 mM NaHCO3 adjusted to pH 7.4. Feeding responses of A. gambiae and A. stephensi to ATP as a function of dose were tested with between 7 to 10 feeding cages per dose. Each feeding experiment with an antagonist systematically included a treatment containing the FS as negative control along with a treatment containing the FS with […] added as positive control for A. gambiae and with […] added as positive control for A. stephensi. These positive and negative controls permitted to monitor any effect of experimental day on feeding responses as a function of dose for antagonists that were recorded over several days. […] Four to 10 cages each with 10 to 29 mosquitoes were tested per antagonist dose. […] The number of feeding cages used to test other compounds and their mixtures as feeding stimulants or as feeding inhibitors is listed on Table 6. The percentage of fed mosquitoes was estimated by visual inspection of abdominal distention that is indicative of engorgement.
Pairwise comparisons of A. gambiae electrophysiological (EP) responses to ATP and adenosine alone and combined with a given dose of PR antagonist, EP responses to ATP alone and combined with a given dose of a metal modulator, and EP responses to ATP prior to and after exposure of a sensillum to a given dose of a PR antagonist were made with a one-tailed Wilcoxon signed-rank test for data showing a non-normal distribution, with a paired Student's t-test for normally distributed data showing homogeneous variance and with a Welch's t-test for normally distributed data showing non-homogeneous variance. […]

Where “and” joins values, the source holds several entries; their conditions need not be identical. Identical values can stand only once. Entries after “also recorded” stand apart in the source; their conditions may differ.

As for `Nc1ncnc2c1ncn2[C@@H]1O[C@H](CO)[C@@H](O)[C@H]1O` [Adenosine, 9-β-D-Ribofuranosyladenine], the spike frequency in experiment [1] (50 pM alone, mixture 50 pM of each agonist) was 1.25±0.62 /2s. Further, the “EP response, spike frequency” value in experiment [1] (200 pM) was found to be 30.23±3.02 spikes/2s. Further, in experiment [1], the EC50 was roughly 0.12 nM, the “spikes recorded at the asymptote” value is listed as “approximately 30 spikes/2 s”, the “Mean spike frequency per 2 s (±SEM)” value came out at 27.14 per 2 s and the ED95 is recorded as roughly 200 pM. In addition, in experiment [1], the “dose at which the unsurmountable asymptote is reached” value (shortened to “dose”) was found to be 250 pM. Besides, the “% Engorged mosquitoes” value in the experiment on A. gambiae (20 μM in feeding solution) came out at 39.1 ± 5.7%. Besides, the “% Engorged mosquitoes” value in the experiment with A. gambiae (1 mM in feeding solution) worked out at 64.4 ± 3.2%.
Take `Nc1ncnc2c1ncn2[C@H]1C[C@H](O)[C@@H](COP(=O)(O)OP(=O)(O)OP(=O)(O)O)O1` [dATP, 2′-Deoxyadenosine 5′-triphosphate]: the “EP response in words” value in experiment [1] (200 pM) is recorded as “strongly reduced activity”.
Take `Nc1ncnc2c1ncn2[C@H]1CC[C@@H](COP(=O)(O)OP(=O)(O)OP(=O)(O)O)O1` [ddATP, 2′,3′-Dideoxyadenosine-5′-triphosphate]: the “EP response in words” value in experiment [1] (200 pM) is given as “strongly reduced activity”.
With `Nc1ncnc2c1ncn2C1OC(COP(=O)(O)CP(=O)(O)OP(=O)(O)O)C(O)C1O` (stereo not drawn) [AMP-CPP, α,β-Methyleneadenosine-5′-triphosphate], in experiment [1], the ED95 worked out at 50 pM and the “dose” value came out at 80 pM. In addition, in the experiment with A. gambiae (20 μM in feeding solution), the “% Engorged mosquitoes” value is 84.35% and 84.3 ± 6.8%.
As for `Nc1ncnc2c1ncn2[C@@H]1O[C@H](COP(=O)(O)OP(=O)(O)O)[C@@H](O)[C@H]1O` [ADP, Adenosine 5′-diphosphate], the “EP response in words” value in experiment [1] (200 pM) was “no activity; also recorded: failure”.
As for `Nc1ncnc2c1ncn2[C@@H]1O[C@H](COP(=O)(O)O)[C@@H](O)[C@H]1O` [AMP, Adenosine 5′-monophosphate], in experiment [1], the EC50 was roughly 0.12 nM, the “spikes recorded at the asymptote” value is listed as “approximately 30 spikes/2 s”, the “Mean spike frequency per 2 s (±SEM)” value came out at 28.58 per 2 s and the ED95 was roughly 200 pM. The “dose” value in experiment [1] turned out to be 250 pM. Moreover, in the experiment on A. gambiae (20 μM in feeding solution), the “% Engorged mosquitoes” value came to 38.3 ± 5.1%.
